The subject of assay [1] is Type III protein secretion of ExoU by P. aeruginosa PA103. The experiment in a line: Tertiary assay: Type III-dependent secretion of ExoU by P. aeruginosa PA103. It counts as cell-based. The note with it: Pseudomonas aeruginosa, read-out: ExoU IC50(uM). From the text:
Tertiary assay: inhibition of Type III protein secretion of effectors from a Pseudomonas aeruginosa system. Type III protein secretion is used by P. aeruginosa to secrete several essential virulence determinants. One effector of the type III protein secretion system of P. aeruginosa PA 103 is the virulence determinants ExoU.
The amount of Type III-dependent secretion of ExoU by P. aeruginosa PA103 can be determined in a cell-based assay by quantification of the 73.9 kDa ExoU protein secreted into the extracellular medium. Such quantitation can be achieved by growing strain PA 103 in a deferrated medium in the presence of nitrilotriacetic acid (an inducer of Type III protein secretion in P. aeruginosa) and either in the presence or absence of putative inhibitors. After a prolonged growth period, the cells are sedimented and the supernatants concentrated by ammonium sulfate precipitation. The proteins in the resuspended pellets are separated by electrophoresis on SDS-polyacrylamide gels. After staining gels with Colloidal Blue™, the 73.9 kDa ExoU band is quantitated by scanning through an imager. The effects of inhibitors on the intensity of the ExoU band may be measured relative to that of untreated controls.

Assay [2] deals with SPI1 type III protein secretion of SopE'-'Bla by Salmonella enterica. The experiment in a line: Primary assay: Type III protein secretion of the chimeric SopE'-'Bla polypeptide by Salmonella enterica. It counts as cell-based. The note with it: read-out: SopE IC50(uM). From the text: Primary assay: Type III protein secretion of the chimeric SopE′-′Bla polypeptide by Salmonella enterica. This procedure is a cell-based assay that measures the type III-dependent secretion by Salmonella enterica of a plasmid-encoded chimeric polypeptide whose synthesis can be regulated, and which is endowed with an enzymatic activity that can be monitored […] by hydrolysis of a substrate that is unable to penetrate into the bacterial cytoplasm within the time constraints of the reaction. Thus, the colorimetric reaction is not influenced by SopE′-′Bla polypeptide in the bacterial cytoplasm. Instead, it effectively measures the amount of polypeptide that has been secreted from the S. enterica cytoplasm to the extracellular medium via type III system protein secretion.
The SopE′-′Bla recombinant polypeptide consists of two functionally distinct domains spliced together. The N-terminus domain is encoded by a polynucleotide region specifying the signal for type III secretion of the SopE polypeptide of S. enterica, an effector of the SPI1 type III protein secretion system. The C-terminus domain of SopE′-′Bla consists of a 263 amino acid peptide sequence that corresponds to the TEM-1 β-lactamase expressed by plasmid pBR322 but without its N-terminal signal sequence. The TEM-1 β-lactamase part of the SopE′-′Bla chimeric polypeptide is used as a reporter enzyme. It is capable of hydrolyzing nitrocefin resulting in a product whose accumulation can be monitored by colorimetric detection. The secretion of the SopE′-′Bla chimeric polypeptide from the cytoplasm to the extracellular medium is dependent on type III protein secretion.
For this procedure, cells grown under conditions known to favor a functional SPI1 secretion system are induced for expression of the SopE′-′Bla protein and grown either in the presence or in the absence of putative inhibitors for determined time. Nitrocefin is then added to the various cultures and its hydrolysis are used for quantitation. An inhibitor of Type III protein secretion is generally a compound that reduces the signal of the enzymatic reaction by decreasing the amount of SopE′-′Bla secreted into the extracellular medium.

In the case of `Cc1cc(C(=O)N[C@@H](CSCc2ccccc2)C(=O)O)nc(N2CCC(c3ccccc3)CC2)n1` [Compound 2, (R)-3-Benzylsulfanyl-2-{[6-methyl-2-(4-phenylpiperidin-1-yl)pyrimidine-4-carbonyl]amino}propionic acid], the IC50 in assay [1] was greater than 100 µM; in assay [2], 34.2 µM.

Regarding `O=C(N[C@H](Cc1ccc(Cl)cc1)C(=O)O)c1cc(N2CCc3ccccc3C2)nc(Cl)n1` [Compound 5, (R)-2-{[2-Chloro-6-(3,4-dihydro-1H-isoquinolin-2-yl)pyrimidine-4-carbonyl]amino}-3-(4-chlorophenyl)propionic acid], the IC50 in assay [2] came to 32.7 µM. Regarding `O=C(N[C@H](Cc1ccc(Cl)cc1)C(=O)O)c1cc(N2CCc3ccccc3C2)nc(-c2ccc(F)cc2)n1` [Compound 9, (R)-3-(4-Chlorophenyl)-2-{[6-(3,4-dihydro-1H-isoquinolin-2-yl)-2-(4-fluoro-phenyl)Pyrimidine-4-carbonyl]amino}propionic acid], the concentration for half-maximal inhibition (IC50) in assay [2] was found to be 8 µM.

With `O=C(N[C@@H](CSCc1ccccc1)C(=O)O)c1cc(N2CCCCC2)nc(N2CCC(c3ccccc3)CC2)n1` [Compound 29, (R)-3-Benzylsulfanyl-2-{[2-(4-phenylpiperidin-1-yl)-6-piperidin-1-yl-pyrimidine-4-carbonyl]amino}propionic acid], in assay [2], the IC50 was found to be 3.2 µM. As to `O=C(N[C@H](Cc1ccc(Cl)cc1)C(=O)O)c1cc(N2CCCc3ccccc32)nc(-c2ccc(-c3ccccc3)cc2)n1` [Compound 33, (R)-2-{[2-Biphenyl-4-yl-6-(3,4-dihydro-2H-quinolin-1-yl)pyrimidine-4-carbonyl]amino}-3-(4-chlorophenyl)propionic acid], the IC50 in assay [1] came out at 24.4 µM. Same read-out and setting: with `O=C(N[C@H](Cc1ccc(Cl)cc1)C(=O)O)c1cc(N2CCCCC2)nc(-c2ccc(-c3ccccc3)cc2)n1` [Compound 34, (R)-2-[(2-Biphenyl-4-yl-6-piperidin-1-yl-pyrimidine-4-carbonyl)amino]-3-(4-chlorophenyl)propionic acid] the figure was 71 µM. Regarding `CN1CCN(c2nc(C(=O)N[C@@H](COCc3ccccc3)C(=O)O)cc(N3CCN(c4nccc(C(F)(F)F)n4)CC3)n2)CC1` [Compound 45, (S)-3-Benzyloxy-2-({2-(4-methyl-piperazin-1-yl)-6-[4-(4-trifluoromethylpyrimidin-2-yl)piperazin-1-yl]pyrimidine-4-carbonyl}amino)propionic acid], the IC50 in assay [2] was determined as 60.7 µM. For the compound `CC1CCN(c2nc(C(=O)N[C@@H](CSCc3ccccc3)C(=O)O)cc(N3CCN(c4ccccn4)CC3)n2)CC1` [Compound 64, (R)-3-Benzylsulfanyl-2-{[2-(4-methylpiperidin-1-yl)-6-(^4-pyridin-2-yl-piperazin-1-yl)pyrimidine-4-carbonyl]amino}propionic acid], the IC50 in assay [1] was 18.9 µM.

As to `O=C(N[C@@H](COCc1ccccc1)C(=O)O)c1cc(N2CCN(c3ccccn3)CC2)nc(N2CCN(c3ccccn3)CC2)n1` [Compound 65, (S)-3-Benzyloxy-2-{[2,6-bis-(4-pyridin-2-yl-piperazin-1-yl)pyrimidine-4-carbonyl]-amino}propionic acid], the IC50 in assay [1] stood at 38.4 µM. Still for that read-out and setting: with `O=C(N[C@@H](CSCc1ccccc1)C(=O)O)c1cc(N2CCN(c3ccccn3)CC2)nc(N2CCN(c3ccccn3)CC2)n1` [Compound 66, (R)-3-Benzylsulfanyl-2-{[2,6-bis-(4-pyridin-2-yl-piperazin-1-yl)pyrimidine-4-carbonyl]amino}propionic acid] the figure was 52.8 µM. `O=C(NC(Cc1ccc(Cl)cc1)C(=O)O)c1cc(N2CCN(c3ccccn3)CC2)nc(N2CCN(c3ccccn3)CC2)n1` (stereo not drawn) [Compound 67, 2-{[2,6-Bis-(4-pyridin-2-yl-piperazin-1-yl)pyrimidine-4-carbonyl]amino}-3-(4-chlorophenyl)propionic acid]: the IC50 in assay [1] was 65.6 µM. On to `O=C(NC(Cc1ccc(Cl)cc1)C(=O)O)c1cc(N2CCN(c3ccccn3)CC2)nc(-c2ccc([N+](=O)[O-])cc2)n1` (stereo not drawn) [Compound 68, 3-(4-Chlorophenyl)-2-{[2-(4-nitrophenyl)-6-(4-pyridin-2-yl-piperazin-1-yl)-pyrimidine-4-carbonyl]amino}propionic acid], for which, in assay [1], the IC50 came out at 21.1 µM.

For `CN(C)c1ccc(-c2nc(C(=O)N[C@@H](COCc3ccccc3)C(=O)O)cc(N3CCN(c4ccccn4)CC3)n2)cc1` [Compound 69, (S)-3-Benzyloxy-2-{[2-(4-dimethylaminophenyl)-6-(4-pyridin-2-yl-piperazin-1-yl)-pyrimidine-4-carbonyl]amino}propionic acid], the IC50 in assay [1] is greater than 100 µM. For `CN(C)c1ccc(-c2nc(C(=O)NC(Cc3ccc(Cl)cc3)C(=O)O)cc(N3CCN(c4ccccn4)CC3)n2)cc1` (stereo not drawn) [Compound 70, 3-(4-Chlorophenyl)-2-{[2-(4-dimethylaminophenyl)-6-(4-pyridin-2-yl-piperazin-1-yl)pyrimidine-4-carbonyl]amino}propionic acid], the IC50 in assay [1] came out at 29.8 µM. On to `O=C(N[C@@H](COCc1ccccc1)C(=O)O)c1cc(N2CCN(c3ccccn3)CC2)nc(-c2cccs2)n1` [Compound 71, (S)-3-Benzyloxy-2-{[6-(4-pyridin-2-yl-piperazin-1-yl)-2-thiophen-2-yl-pyrimidine-4-carbonyl]amino}propionic acid], for which the IC50 in assay [1] was greater than 50 µM. Same read-out and setting: in the case of `O=C(N[C@@H](CSCc1ccccc1)C(=O)O)c1cc(N2CCN(c3ccccn3)CC2)nc(-c2ccoc2)n1` [Compound 72, (R)-3-Benzylsulfanyl-2-{[2-furan-3-yl-6-(4-pyridin-2-yl-piperazin-1-yl)pyrimidine-4-carbonyl]amino}propionic acid] it was greater than 50 µM. Same read-out and setting: in the case of `O=C(N[C@@H](COCc1ccccc1)C(=O)O)c1cc(N2CCN(c3ccccn3)CC2)nc(-c2ccoc2)n1` [Compound 73, (S)-3-Benzyloxy-2-{[2-furan-3-yl-6-(4-pyridin-2-yl-piperazin-1-yl)pyrimidine-4-carbonyl]amino}propionic acid] it was greater than 50 µM; in that of `CC1CCN(c2cc(C(=O)N[C@@H](CSCc3ccccc3)C(=O)O)nc(N3CCN(c4ccccn4)CC3)n2)CC1` [Compound 74, (R)-3-Benzylsulfanyl-2-{[6-(4-methylpiperidin-1-yl)-2-(4-pyridin-2-yl-piperazin-1-yl)pyrimidine-4-carbonyl]amino}propionic acid], greater than 50 µM.

With `CN1CCN(c2cc(C(=O)N[C@@H](CSCc3ccccc3)C(=O)O)nc(N3CCN(c4ccccn4)CC3)n2)CC1` [Compound 75, (R)-3-Benzylsulfanyl-2-{[6-(4-methyl-piperazin-1-yl)-2-(4-pyridin-2-yl-piperazin-1-yl)pyrimidine-4-carbonyl]amino}propionic acid], the 50% inhibitory concentration (IC50) in assay [1] is greater than 100 µM.

With `CN1CCN(c2cc(C(=O)N[C@@H](COCc3ccccc3)C(=O)O)nc(N3CCN(c4ccccn4)CC3)n2)CC1` [Compound 76, (S)-3-Benzyloxy-2-{[6-(4-methyl-piperazin-1-yl)-2-(4-pyridin-2-yl-piperazin-1-yl)-pyrimidine-4-carbonyl]amino}propionic acid], the IC50 in assay [1] was greater than 50 µM.

For the compound `O=C(N[C@@H](CSCc1ccccc1)C(=O)O)c1cc(N2CCC(Cc3ccccc3)CC2)nc(-c2ccc(C(F)(F)F)cc2)n1` [Compound 77, (R)-2-{[6-(4-Benzylpiperidin-1-yl)-2-(4-trifluoromethylphenyl)pyrimidine-4-carbonyl]amino}3-benzylsulfanylpropionic acid], the IC50 in assay [1] was 92.8 µM. For `O=C(N[C@@H](CSCc1ccccc1)C(=O)O)c1cc(N2CCC(Cc3ccccc3)CC2)nc(-c2ccc(Cl)cc2)n1` [Compound 78, (R)-2-{[6-(4-Benzylpiperidin-1-yl)-2-(4-chlorophenyl)pyrimidine-4-carbonyl]-amino}-3-benzylsulfanylpropionic acid], the IC50 in assay [1] was determined as 42.4 µM. `O=C(NC(Cc1ccc(Cl)cc1)C(=O)O)c1cc(N2CCC(Cc3ccccc3)CC2)nc(-c2ccc(Cl)cc2)n1` (stereo not drawn) [Compound 79, 2-{[6-(4-Benzylpiperidin-1-yl)-2-(4-chlorophenyl)pyrimidine-4-carbonyl]amino}-3-(4-chlorophenyl)propionic acid]: the IC50 in assay [1] was 64 µM.

Values taken from US20050282824A1, “Substituted pyrimidines as inhibitors of bacterial type III protein secretion systems” (priority 2004, published 2005).
